Here are results for 90 molecules from a melting point compilation (Tetko et al.; mined from patent text by program, amines drawn as free bases though some values may be those of a salt).

What is called melting point is the temperature, or range, at which the solid turns liquid.

Each structure is given as a SMILES string.

Regarding `Cc1ccc(Cl)c2c(C)c(C(=O)O)[nH]c12`, the melting point lay in the range of 211 to 213 °C. The molecule `CC(=O)C1CCCS1(=O)=O` (stereo not given) yielded a melting point of 119 to 120 °C. `CCn1cc2c(n1)c(Cl)nc1cc(OCc3ccccc3)ccc12`: the melting point lay in the range of 155 to 157 °C.

Turning to `CCc1ccc(CCc2ccc(-c3ccc(OC(F)(F)F)cc3)cc2)cc1`, the melting point was 97 °C. Turning to `O=C(NCC1(c2ccccc2)CCCCC1)Nc1ccc(Br)cc1`, the melting point fell in the range of 172 to 173 °C. `O=C(OCCO)c1ccc(Cl)c([N+](=O)[O-])c1` had a melting point of 102 to 104 °C. For the molecule `CC1(C)CC(=O)C(C(=S)Nc2ccc(Cl)c(C(F)(F)F)c2)C(=O)C1`, the melting point lay in the range of 101 to 102 °C. The molecule `COc1ccc2cccc3c2c1C(CC(=O)O)CC3` (stereo not given) gave a melting point of 147 °C.

In the case of `CC(NC(=O)C(C)(C(C)C)C(C)C)c1ccco1` (stereo not given), the melting point was in the range of 57 to 60 °C.

For the molecule `Cc1c(OC(C)(C)C(=O)O)ccc(OCCCC#Cc2ccc(OC(F)(F)F)cc2)c1F`, the melting point fell in the range of 116 to 118 °C. In turn, `CCCCCCC(C(=O)OCC)S(=O)(=O)c1ccc(C)cc1` (stereo not given) returned a melting point of 111 to 123 °C. The value for `O=C(c1c(Cl)cccc1[N+](=O)[O-])n1ccnc1-c1ccccc1` was 147 to 148 °C; that for `Cc1cc(CNc2cccc(C(=O)O)c2C(=O)O)oc1C` was 127 to 129 °C; that for `O=C(CSc1cccc(Br)c1)c1ccc2[nH]c3ncc(Cl)cc3c2c1` was 229 to 230 °C.

For the molecule `CCN1C(=O)N=NC1c1ccc(Cl)cc1` (stereo not given), the melting point was in the range of 190 to 197 °C.

The molecule `Clc1nc(N2CCOCC2)c2nnn(C3CCOCC3)c2n1` showed a melting point of 142 °C. Consider `CCCCNC(=O)CCC(=O)c1ccccc1`, for which the melting point fell in the range of 78 to 80 °C. The figure for `O=S(=O)(c1ccccc1)n1c2ccc(Br)cc2c2cc(Cl)cnc21` is 242 °C; for `CCOC1=CC(C)=C(C(=O)OC)C(C)(C)C1` it is 67 to 69 °C; for `O=C(O)C(=O)c1ccc(OCCCOc2ccccc2)cc1` it is 50 to 52 °C. The figure for `Cc1oc(-c2ccco2)nc1COc1ccc(COc2nn(Cc3ccc(OCc4nc(-c5ccco5)oc4C)cc3)cc2C(=O)O)cc1` is 144 to 145 °C; for `NC[C@@H]1C[C@@H](SC(c2ccccc2)(c2ccccc2)c2ccccc2)CN1S(=O)(=O)c1ccc2ccccc2c1` it is 88 to 89 °C.

`Cc1ccc(S(=O)(=O)OCC2C(CC(C)C3CCC4C(O)CCCC34C)N(C)OC2(C)C)cc1` (stereo not given) yielded a melting point of 114 to 115 °C. The figure for `O=C(O)c1ccc(CCCC2SCC(=O)N2CCC2(O)C3CCCC2CCC3)cc1` (stereo not given) is 176 to 178 °C. For the molecule `COc1ccc(C2=CCCc3cc(OC)ccc32)cc1`, the melting point is 100 to 102 °C. `NCCCNC(=O)CCn1cnc2c(=O)[nH]cnc21` showed a melting point of 172 to 175 °C. In the case of `COC(=O)c1ccc([C@H]2CC[C@H](C=O)CC2)cc1`, the melting point lay within 84 to 85 °C. For `COc1cc(OCC(CO)CO)c(C=CC(=O)c2ccc(S(N)(=O)=O)cc2)cc1-c1cccs1`, the melting point was in the range of 123 to 124 °C. With `CN1C(=O)C(C(=O)Nc2ccc(Oc3nc4ccc(Cl)cc4s3)cc2)C(=O)N(C)C1=S`, the melting point was in the range of 213 to 215 °C. `O=C1NC(=O)c2cc(Nc3ccccc3I)c(Nc3ccccc3I)cc21` came in with a melting point of 108 to 110 °C. On to `Cc1cccc(Nc2ccccc2-c2n[nH]c(=O)o2)c1C`, for which the melting point lay in the range of 239 to 241 °C.

As to `O=S(=O)(NCCc1ccc(CCO)cc1)c1cccc(C(F)(F)F)c1`, the melting point is 70 to 72 °C. The figure for `CCOc1cc2c(Cl)c(C#N)cnc2cc1F` is 165 to 166 °C; for `CC(C)C1Sc2ccccc2N(CC(N)=O)C(=O)C1N` (stereo not given) it is 227 to 229 °C. `CCOc1cc(-c2cc(C(F)F)n3ncc(C(=O)Nc4cccc(S(=O)(=O)NC5CC5)c4)c3n2)ccc1C(F)(F)F` registered a melting point of 213 °C. On to `CCC(=NOCC=CCl)C1=C(O)CC(c2ccc(NS(C)(=O)=O)cc2)CC1=O` (stereo not given), for which the melting point is 125 to 127 °C. In turn, `CCCCOc1c(CN2C(=O)c3ccccc3C2=O)n(CCNC(=O)OC)c(=O)c2cc(Cl)c(Cl)cc12` registered a melting point of 241 to 243 °C. For `N#CC1CC2(c3ccccc3)SC13c1ccccc1CCN3C2=O` (stereo not given), the melting point was in the range of 225 to 226 °C. `CCN1c2ncc(CCc3cncnc3)cc2C(=O)N(C)c2cccnc21` yielded a melting point of 142 to 143 °C. `CC(C)(C)OC(=O)N1CCOc2ccc(Br)cc2S1(=O)=O`: the melting point was 119 °C. Consider `Cc1cc2cc(OCCC#N)ccc2o1`, for which the melting point was in the range of 73 to 76 °C. In turn, `O=C(NCCN(CCNC(=O)OCCO)c1nc(Cl)nc(N(CCNC(=O)OCCO)CCNC(=O)OCCO)n1)OCCO` showed a melting point of 174 °C. The molecule `Cc1c(S(N)(=O)=O)c(-c2nnc(S)o2)nn1C` showed a melting point of 243 to 245 °C. Consider `CN(C(=O)c1ccc2nonc2c1)C1CCCC(=O)C1` (stereo not given), for which the melting point was in the range of 164 to 165 °C.

Molecule `CC(=O)OCC1OC(n2c(=O)sc3c(=O)[nH]c(N)nc32)C(OC(C)=O)C1OC(C)=O` (stereo not given) yielded a melting point of 198 to 199 °C.

With `COc1cccc(/C=C(/C(=O)O)c2cc(OC)c(OC)c(OC)c2)c1`, the melting point was in the range of 68 to 70 °C. In the case of `CC(C)c1cc(/C=C/C(=O)O)n(Cc2ccc(Cl)cc2Cl)n1`, the melting point lay within 174 to 175 °C. `Cn1nnc2c(N3CCOCC3)nc(-c3ccc(NC(=O)Nc4ccsc4)cc3)nc21` returned a melting point of 272 °C. As to `ClCc1cn2c(-c3ccccc3)cccc2n1`, the melting point is 126 to 127 °C. The figure for `CC(C)(C)OC(=O)C(C#N)C(c1cccc2ccccc12)c1cccc2ccccc12` (stereo not given) is 156 to 157 °C; for `CCCC(=O)NS(=O)(=O)c1cccc(-c2cccc(-c3cc(-c4ccc(C(F)(F)F)cc4)cc(C)n3)n2)c1` it is 188 °C; for `Cc1cc(N(C)C)ccc1C=O` it is 66 to 67 °C. The value for `Cc1cc(N)c(F)cc1Br` was 57 °C; that for `CC(C)(OCc1cc2cc(Cl)ccc2n1S(=O)(=O)c1ccc2ncsc2c1)C(=O)O` was 74 °C. `CCc1cc(OCc2ccccc2)ccc1C(=O)NNC(=O)Cc1cccc(O)c1`: the melting point lay in the range of 190 to 191 °C. Consider `O=Cc1c(N2CCNCC2)n(Cc2ccccc2)c2ccccc12`, for which the melting point lay in the range of 163 to 165 °C. `CCOC(=O)C1(CC(N)=O)C(=O)N(Cc2ccc(Br)cc2F)C(=O)c2cccn21` (stereo not given) yielded a melting point of 190 to 192 °C. With `O=C(O)COc1cc(Cl)ccc1C(=O)NCc1cc(C(F)(F)F)cc(C(F)(F)F)c1`, the melting point lay within 191 to 193 °C. Consider `O=C(O)CCn1cccc1Cn1ccnc1`, for which the melting point fell in the range of 127 to 128 °C.

As to `COC(CCc1cc(C(F)(F)F)cc(C(F)(F)F)c1)C(Cc1csc2ccccc12)NC(C)=O` (stereo not given), the melting point lay in the range of 120 to 121 °C. The value for `CCn1c(C)c(C(=O)c2nccnc2C(=O)O)c2ccccc21` was 212 to 213 °C; that for `O=C(O)C=Cc1cc(=O)c(OCc2ccccc2)c[nH]1` was 236 °C; that for `CCOCC1Cc2cc(S(N)(=O)=O)c(Cl)c(Cl)c2O1` (stereo not given) was 148 to 149 °C. The molecule `Cc1ccn(-c2ccc(C(=O)N3Cc4cccn4Cc4ccccc43)c(F)c2)n1` displayed a melting point of 192 to 193 °C. With `CC(C)Oc1cccc(C=C(C=O)C(C=O)=Cc2cccc(OC(C)C)c2)c1`, the melting point was 116 to 117 °C. The value for `COCOc1c(NC(=O)N(CCCCCC(=O)O)c2ccccc2)cc(OC)cc1C(C)(C)C` was 109 to 111 °C; that for `CC(C)C1NCC(=O)N1CC(N)=O` (stereo not given) was 64 °C; that for `Cc1cccc(NC(=O)NC2N=C(C(C)C)c3cccc(C)c3N(CC(=O)C3CCCCC3)C2=O)c1` (stereo not given) was 142 to 146 °C. For the molecule `COc1c(C(C)C)cc(S(N)(=O)=O)c(C)c1C(=O)NCC1CCCN1CC1CC1` (stereo not given), the melting point is 125 °C. The molecule `CCNC(=O)c1c(Cl)cc(C=O)cc1[Si](C)(C)C` returned a melting point of 95 to 97 °C.

Consider `CCC1(Cc2ccc(O)cc2)NC(=O)NC1=O` (stereo not given), for which the melting point was 236 to 238 °C. As for `CC(C(=O)NC1=NCCS1)c1ccc(C(=O)c2cccs2)cc1` (stereo not given), the melting point turned out to be 186 °C.

`Nc1ccc(C(=O)c2ccccn2)cc1[N+](=O)[O-]`: the melting point was in the range of 186 to 187 °C. In turn, `COC(=O)c1ccc(CCCCc2c(N)nc(N)nc2O)cc1` yielded a melting point of 203 to 205 °C.

Take `Cn1c(C(F)(F)F)cc(=O)n(-c2c(F)cc(Cl)c3cc(C=O)oc23)c1=O`: the melting point fell in the range of 180 to 183 °C. For `COc1ccc(-c2[nH]cnc2-c2cc(OC)c([N+](=O)[O-])c(OC)c2)cc1O`, the melting point was in the range of 148 to 149 °C.

On to `O=C1C2CCC(C(=O)N2Cc2ccccc2)N1Cc1ccccc1`, for which the melting point lay within 168 to 170 °C.

For `Oc1ccc(CNc2n[nH]c3ncnc(Nc4cccc(Cl)c4)c23)cc1Cl`, the melting point was found to be 220 °C. As to `CCCN(CCC)c1c([N+](=O)[O-])cc(C2OCCS2)cc1[N+](=O)[O-]` (stereo not given), the melting point lay within 111 to 112 °C. On to `O=C1NC(c2ccccc2)(c2ccccc2)C(=O)N1CO`, for which the melting point fell in the range of 185 to 189 °C. Regarding `CN1Cc2cncn2-c2cccc(Br)c2C1=O`, the melting point fell in the range of 196 to 197 °C. As for `Cn1cccc1-c1ccc2c(c1)C(C)(C)OC(=O)N2`, the melting point was determined as 230 °C.

Take `O=[N+]([O-])c1cccc2c1C[C@H]1CSC(=S)N1C2`: the melting point was 203 °C. The figure for `O=C1C(O)=C(O)C(=O)c2cc(Cl)ccc21` is 228 to 229 °C; for `CCN(CC)c1ccc(S(=O)(=O)N2CC(O)CC2=O)cc1` (stereo not given) it is 165 °C.

In turn, `O=S1(=O)c2ccccc2N(c2ccc(-c3nc4ccccc4n3-c3ccccc3)cc2)c2ccccc21` registered a melting point of 286 to 288 °C. `O=C1OCCN1C(=O)c1ccccc1` returned a melting point of 166 to 170 °C. The value for `CCC(=O)N1CCC(NC(=O)Nc2ccc(Br)cc2)CC1` was 233 to 239 °C; that for `O=C(CCl)Nc1ccc(Cl)cc1C(=O)c1ccccc1` was 119 to 120 °C; that for `O=C(O)Cc1cccc(C(=O)c2ccccc2)c1[N+](=O)[O-]` was 160 to 162 °C.
